Data set [1] has as its system B6129/F1 hybrid mice. The data set is described as follows: Hot plate test. The format is in vivo, mouse.
In data set [2] the target is nociceptin receptor (OPRL1) (Homo sapiens, UniProt P41146). The data set is described as follows: cell-based. The format is cell-based.
The target of data set [3] is κ opioid receptor (OPRK1) (Homo sapiens, UniProt P41145). The data set is described as follows: cell-based.
The nature of data set [4]: in vitro. As to conditions: mouse, microsomes.
Data set [5] deals with B6129/F1 hybrid mice. The data set is described as follows: Naloxone pre-treatment antagonist study in hot plate test. The format is in vivo, mouse. To be noted: naloxone 10 mg/kg pretreatment, agonist 10 mg/kg. (In hot-plate and tail-flick tests a longer latency is read as antinociception.)
Data set [6] deals with human μ opioid receptor (OPRM1) (Homo sapiens, UniProt P35372). The data set is described as follows: cell-based. The format is cell-based.
A short description of data set [7]: in vitro. To be noted: human, microsomes.
Data set [8] is described as follows: Solubility observed for in vivo dosing.
The target of data set [9] is human μ opioid receptor β-arrestin-2 (Homo sapiens, UniProt P35372). The data set is described as follows: cell-based.
In data set [10] the target is human δ opioid receptor (OPRD1) (Homo sapiens, UniProt P41143). The data set is described as follows: cell-based. The format is cell-based.

Values joined by “and” are separate entries in the source; they are usually repeats but may differ in a detail not shown here. Identical values can stand only once.

Sequence of human δ opioid receptor (OPRD1) (P41143 whole entry): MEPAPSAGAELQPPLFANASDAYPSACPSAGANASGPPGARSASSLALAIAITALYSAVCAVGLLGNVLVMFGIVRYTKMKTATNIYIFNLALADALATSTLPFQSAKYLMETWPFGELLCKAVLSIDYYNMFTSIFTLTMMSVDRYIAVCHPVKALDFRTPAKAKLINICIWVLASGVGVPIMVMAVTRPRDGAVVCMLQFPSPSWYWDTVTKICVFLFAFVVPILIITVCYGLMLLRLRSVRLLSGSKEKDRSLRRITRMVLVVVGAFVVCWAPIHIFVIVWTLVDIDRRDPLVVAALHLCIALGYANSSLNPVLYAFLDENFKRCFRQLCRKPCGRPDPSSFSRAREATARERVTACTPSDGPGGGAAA
Sequence of κ opioid receptor (OPRK1) (P41145 whole entry): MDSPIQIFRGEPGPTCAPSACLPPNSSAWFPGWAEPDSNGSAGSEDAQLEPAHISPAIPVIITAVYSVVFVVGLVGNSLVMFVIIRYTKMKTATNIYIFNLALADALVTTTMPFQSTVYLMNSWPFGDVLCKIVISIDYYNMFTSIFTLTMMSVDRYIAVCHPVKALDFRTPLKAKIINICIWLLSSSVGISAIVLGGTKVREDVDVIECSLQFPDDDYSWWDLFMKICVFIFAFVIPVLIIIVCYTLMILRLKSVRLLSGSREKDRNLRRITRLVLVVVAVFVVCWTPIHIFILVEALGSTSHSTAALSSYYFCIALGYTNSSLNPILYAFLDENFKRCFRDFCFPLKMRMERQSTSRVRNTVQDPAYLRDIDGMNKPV
Sequence of nociceptin receptor (OPRL1) (P41146 whole entry): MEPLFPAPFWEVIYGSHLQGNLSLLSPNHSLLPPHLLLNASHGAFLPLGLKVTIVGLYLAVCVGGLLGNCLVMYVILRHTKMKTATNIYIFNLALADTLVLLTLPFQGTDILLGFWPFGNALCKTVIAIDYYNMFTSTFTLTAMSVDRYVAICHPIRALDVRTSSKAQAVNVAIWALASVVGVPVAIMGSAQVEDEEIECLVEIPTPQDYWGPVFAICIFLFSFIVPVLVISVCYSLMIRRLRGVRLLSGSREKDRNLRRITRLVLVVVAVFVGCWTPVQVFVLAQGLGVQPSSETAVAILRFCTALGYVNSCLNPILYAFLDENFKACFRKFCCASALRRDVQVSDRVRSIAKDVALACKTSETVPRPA
Sequence of human μ opioid receptor (OPRM1) (P35372 whole entry): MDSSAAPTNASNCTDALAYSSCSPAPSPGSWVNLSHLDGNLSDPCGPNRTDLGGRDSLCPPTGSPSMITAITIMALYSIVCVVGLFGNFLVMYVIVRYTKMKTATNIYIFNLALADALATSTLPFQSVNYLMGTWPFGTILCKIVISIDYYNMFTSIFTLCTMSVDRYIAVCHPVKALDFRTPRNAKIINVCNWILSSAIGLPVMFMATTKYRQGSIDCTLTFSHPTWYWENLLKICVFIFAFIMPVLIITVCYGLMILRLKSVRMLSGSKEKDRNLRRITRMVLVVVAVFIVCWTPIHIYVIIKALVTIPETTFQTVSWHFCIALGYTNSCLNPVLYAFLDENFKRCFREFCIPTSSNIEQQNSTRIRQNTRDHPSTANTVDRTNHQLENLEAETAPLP
Sequence of human μ opioid receptor β-arrestin-2 (P35372 whole entry): as above

As a reminder, the ED50 is the dose at which the effect has come halfway, by size or by number of responders. As a reminder, the EC50 is the concentration giving half of the maximal effect. For orientation: Emax means the greatest response seen or fitted, relative to the assay's reference. The term half-life denotes how long it takes for the measured level to halve. In the case of `NC(=O)c1cccc(N2C3CCC2CN(CCCc2ccccc2)C3)c1` [Compound 13, 3-(3-(3-Phenylpropyl)-3,8-diazabicyclo[3.2.1]octan-8-yl)benzamide], the ED50 in data set [1] (Mus musculus, ip, read-out: ED50 (antinociception, hot plate)) came to 0.658 mg/kg. Besides, the “in vivo agonist profile (antinociception)” value in data set [1] (hot plate, mice, i.p.) is “partial agonists”. In addition, the “Emax (maximal possible effect at the highest dose, hot plate)” value in data set [1] (i.p., cumulative doses, B6129/F1 mice, nonlinear regression) is 31.91 % MPE and 32 % MPE. The “NOR cAMP pEC50± SEM” value in [2] is reported as below 5.0. Also, the EC50 is above 10000 nM in data set [2] (read-out: NOR cAMP EC50); above 10000 nM in data set [3] (read-out: KOR cAMP EC50); 0.25 nM in data set [6] (read-out: MOR cAMP EC50); 16 nM in data set [9] (read-out: β-Arrestin Recruitment EC50); 10 nM in [10] (read-out: DOR cAMP EC50). Moreover, the Emax in data set [2] (read-out: NOR cAMP Emax ± SEM (%)) worked out at 0%; in data set [3] (read-out: KOR cAMP Emax ± SEM (%)), 0%; in [6] (OPRM1, read-out: MOR cAMP %Emax ± SEM) it was 101.8 ± 0.3%; in data set [9] (read-out: β-Arrestin Recruitment %Emax ± SEM), 7.5 ± 1.3%; in data set [10] (read-out: DOR cAMP Emax ± SEM (%)), 81.3 ± 3%. Also, in data set [3], the “KOR cAMP pEC50± SEM” value is below 5.0. The half-life stood at 14.2 min in [4] and 92.7 min in data set [7]. In data set [5], the “effect of naloxone pretreatment on antinociceptive effects” value is “antagonized by naloxone”. The “MOR cAMP pEC50±SEM” value in data set [6] is 9.6 ± 0.1. In addition, the “solubility (in words)” value in data set [8] is “readily soluble”. The “β-Arrestin Recruitment pEC50 ± SEM” value in [9] is 7.8 ± 0.1. Also, the “DOR cAMP pEC50±SEM” value in [10] is 8.0 and 8.0 ± 0.2.
